The source made the active and inactive calls.
Columns and labels:
[1] = target: Voltage-gated N-type calcium channel alpha-1B subunit/Amyloid beta A4 precursor protein-binding family A member 1 (Homo sapiens, UniProt Q00975+Q02410); experiment: disruptors of Mint-PDZ/N-type channel peptide interaction – biochemical, HTRF, set 2, SAR follow-up (AID 434980); assay type: functional
[2] = target: Nucleotide-binding oligomerization domain-containing protein 1 (Homo sapiens, UniProt Q9Y239); experiment: blockers of NOD1 pathway activity – revised, SAR follow-up (AID 2333); assay type: functional
Phospholipase A2 = Phospholipase A2 (Homo sapiens, UniProt P04054); assay type: functional;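 further: confirmatory dose-response counterscreen on phospholipase A2, testing hits that came from an ultra-high-throughput screen for ATG4B inhibitors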
[3] = target: T1, Short transient receptor potential channel 4 (Mus musculus, UniProt Q9QUQ5); experiment: block of DAMGO-driven TRPC4 calcium entry – cell-based, HEK293 TRPC4/mu-opioid, Fluo-4 calcium, dose response (AID 434942); assay type: functional;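 further: potency of inhibitors blocking the TRPC4 calcium response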
T1 sequence (Q9QUQ5 whole entry): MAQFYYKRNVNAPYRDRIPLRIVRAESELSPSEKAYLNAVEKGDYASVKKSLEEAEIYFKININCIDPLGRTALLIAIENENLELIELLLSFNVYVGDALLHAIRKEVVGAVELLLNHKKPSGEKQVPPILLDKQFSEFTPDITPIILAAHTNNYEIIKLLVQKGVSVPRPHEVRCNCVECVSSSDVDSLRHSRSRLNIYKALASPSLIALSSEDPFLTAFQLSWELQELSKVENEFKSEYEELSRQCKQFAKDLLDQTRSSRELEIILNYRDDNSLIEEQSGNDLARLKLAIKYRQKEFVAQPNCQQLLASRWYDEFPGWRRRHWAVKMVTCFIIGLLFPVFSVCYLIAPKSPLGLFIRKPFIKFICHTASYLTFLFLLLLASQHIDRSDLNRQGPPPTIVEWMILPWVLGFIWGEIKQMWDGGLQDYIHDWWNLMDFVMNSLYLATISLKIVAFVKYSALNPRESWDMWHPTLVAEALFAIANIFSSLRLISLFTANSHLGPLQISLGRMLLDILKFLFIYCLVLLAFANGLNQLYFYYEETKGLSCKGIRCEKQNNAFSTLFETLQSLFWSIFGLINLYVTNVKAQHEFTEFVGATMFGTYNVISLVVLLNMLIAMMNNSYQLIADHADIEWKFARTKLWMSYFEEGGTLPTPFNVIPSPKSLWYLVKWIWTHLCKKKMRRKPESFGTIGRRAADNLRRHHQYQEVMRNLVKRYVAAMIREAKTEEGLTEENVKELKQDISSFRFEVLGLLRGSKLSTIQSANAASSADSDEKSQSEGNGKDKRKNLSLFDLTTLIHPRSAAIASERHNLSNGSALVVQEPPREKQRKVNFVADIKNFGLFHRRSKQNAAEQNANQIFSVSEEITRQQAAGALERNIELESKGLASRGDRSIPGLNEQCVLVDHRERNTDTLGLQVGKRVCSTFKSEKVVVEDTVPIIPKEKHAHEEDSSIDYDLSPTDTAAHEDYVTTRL

[4] = target: T2, Nucleotide-binding oligomerization domain-containing protein 2 (Homo sapiens, UniProt Q9HC29); experiment: PubChem AID 2334; assay type: functional
[5] = target: T2, Nucleotide-binding oligomerization domain-containing protein 2; experiment: inhibition of NOD2-driven NF-kB reporter – cell-based, luminescence, uHTS, HEK293 (AID 1566); assay type: functional
Cysteine protease ATG4B = target: T3, Cysteine protease ATG4B (Homo sapiens, UniProt Q9Y4P1); assay type: functional;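 further: Fluorescence-based dose-response confirmation assay measuring inhibition of ATG4B activity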
T3 sequence (Q9Y4P1 whole entry): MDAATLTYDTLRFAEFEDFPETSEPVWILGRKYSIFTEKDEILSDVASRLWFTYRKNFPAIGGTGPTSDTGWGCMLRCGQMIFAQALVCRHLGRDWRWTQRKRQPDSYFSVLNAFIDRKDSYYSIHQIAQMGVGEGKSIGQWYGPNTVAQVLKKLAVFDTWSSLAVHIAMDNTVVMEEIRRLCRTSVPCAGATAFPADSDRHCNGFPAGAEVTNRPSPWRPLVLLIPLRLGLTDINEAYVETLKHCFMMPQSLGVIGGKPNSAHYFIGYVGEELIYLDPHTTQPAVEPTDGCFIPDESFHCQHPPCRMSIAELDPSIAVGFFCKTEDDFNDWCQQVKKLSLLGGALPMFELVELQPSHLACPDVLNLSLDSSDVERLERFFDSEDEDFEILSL

Tumor necrosis factor = Tumor necrosis factor (Homo sapiens, UniProt P01375); experiment: analog potency on TNFa NF-kB signaling – cell-based, revised, SAR follow-up (AID 2337); assay type: functional
[6] = target: Cystic fibrosis transmembrane conductance regulator/Golgi-associated PDZ and coiled-coil motif-containing protein (Homo sapiens, UniProt P13569+Q9HD26); experiment: potency against CAL PDZ-peptide interaction – biochemical, fluorescence polarization, Cerulean-tagged CAL PDZ, cherry-picks, dose response (AID 504773)
[7] = HPDE-C7 pancreatic duct cell viability loss – fluorescence, HTS (AID 430); assay type: functional, cell-based; conditions: Homo sapiens
[8] = target: Neurotensin receptor type 1 (Homo sapiens, UniProt P30989); assay type: functional;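 further: Image-based confirmatory dose-response assay measuring agonist activity at NTR1; NTR1-expressing U2OS osteosarcoma cells imaged for beta-arrestin GFP spot formation; agonist potency where compounds increase beta-arrestin recruitment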
[9] = viability loss of HPDE-C7K cells – cell-based, fluorescence, HTS, primary screen (AID 431); assay type: functional; conditions: Homo sapiens
Paired box protein Pax-8 = Paired box protein Pax-8 (Homo sapiens, UniProt Q06710); experiment: PAX8 transcriptional activity inhibition in RMG-I – RMG-I cells, luciferase, cherry-pick, dose response (AID 687027); assay type: functional, cell-based;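 further: luciferase reporter driven by Pax8 target thyroperoxidase promoter measured by SteadyGlo luminescence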
[10] = target: Luciferin 4-monooxygenase (Photinus pyralis, UniProt P08659); experiment: Counter Screen for Luciferase-based Assay Positives. [Related pubchem assays: 620, 618, 411 ]
HT-1080 = experiment: HT1080 cell viability loss – fluorescence readout (AID 620); assay type: functional, cell-based; conditions: Homo sapiens
[11] = target: T4, G-protein coupled receptor 35 (Homo sapiens, UniProt Q9HC97); experiment: inhibition of zaprinast-stimulated GPR35 beta-arrestin translocation – imaging, U2OS, beta-arrestin-GFP, zaprinast agonist, primary screen (AID 2058); assay type: functional;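 further: antagonist potency meaning inhibition of agonist-induced arrestin redistribution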
[12] = NIH3T3 cell viability loss – ATP luminescence, mouse fibroblasts, counter-screen, dose response (AID 2010); assay type: functional, cell-based;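 further: cells exposed to compound for about 90 hours before reading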
[13] = Trypanosoma cruzi growth suppression in host cells – NIH3T3 host cells, beta-gal luminescence, confirmation (AID 2044); assay type: functional, cell-based;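 further: intracellular parasites grown in NIH/3T3 mouse fibroblasts as host cells; luminescent beta-galactosidase reporter signal from transgenic T. cruzi replicating inside host cells; inhibitors lower the luminescence signal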
[14] = target: G-protein coupled receptor 55 (Homo sapiens, UniProt Q9Y2T6); experiment: blockers of GPR55 signalling, imaged – imaging, image-based, counter-screen for GPR35 antagonist project, SAR follow-up (AID 2397); assay type: functional
[15] = target: T4, G-protein coupled receptor 35; experiment: SAR Analysis for the identification of Selective Antagonists of ERK1/2 Activity in GPR35-Overexpressing U2OS Cells. [Related pubchem assays: 2079, 2058 ]; assay type: functional, cell-based

T2 sequence (Q9HC29 whole entry, the tested form may be a part): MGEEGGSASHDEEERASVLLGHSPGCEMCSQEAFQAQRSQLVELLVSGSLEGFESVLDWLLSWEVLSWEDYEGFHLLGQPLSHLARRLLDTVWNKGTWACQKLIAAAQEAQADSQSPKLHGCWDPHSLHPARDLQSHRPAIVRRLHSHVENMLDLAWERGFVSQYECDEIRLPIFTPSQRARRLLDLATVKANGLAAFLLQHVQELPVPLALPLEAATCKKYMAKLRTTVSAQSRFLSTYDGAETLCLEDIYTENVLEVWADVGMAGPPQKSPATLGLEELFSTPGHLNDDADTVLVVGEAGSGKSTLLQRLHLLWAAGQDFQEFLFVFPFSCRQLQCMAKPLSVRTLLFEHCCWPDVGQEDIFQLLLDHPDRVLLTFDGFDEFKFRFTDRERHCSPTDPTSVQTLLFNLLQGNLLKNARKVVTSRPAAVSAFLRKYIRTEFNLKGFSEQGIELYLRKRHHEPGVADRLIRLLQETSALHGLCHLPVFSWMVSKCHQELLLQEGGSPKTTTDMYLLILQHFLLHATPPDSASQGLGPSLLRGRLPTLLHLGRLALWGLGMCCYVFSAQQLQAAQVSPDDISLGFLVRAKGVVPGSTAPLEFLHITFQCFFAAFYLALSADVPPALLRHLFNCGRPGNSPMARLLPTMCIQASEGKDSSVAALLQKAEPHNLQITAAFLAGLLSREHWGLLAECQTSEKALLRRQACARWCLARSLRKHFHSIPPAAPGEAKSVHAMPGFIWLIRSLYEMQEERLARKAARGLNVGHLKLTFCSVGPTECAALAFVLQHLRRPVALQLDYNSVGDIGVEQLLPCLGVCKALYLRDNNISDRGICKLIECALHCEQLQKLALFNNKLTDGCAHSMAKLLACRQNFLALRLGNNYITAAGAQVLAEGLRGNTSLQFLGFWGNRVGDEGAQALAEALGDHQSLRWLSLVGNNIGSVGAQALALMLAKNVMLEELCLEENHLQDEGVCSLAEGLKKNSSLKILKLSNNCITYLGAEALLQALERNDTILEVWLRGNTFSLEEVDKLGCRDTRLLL
T4 sequence (Q9HC97 whole entry): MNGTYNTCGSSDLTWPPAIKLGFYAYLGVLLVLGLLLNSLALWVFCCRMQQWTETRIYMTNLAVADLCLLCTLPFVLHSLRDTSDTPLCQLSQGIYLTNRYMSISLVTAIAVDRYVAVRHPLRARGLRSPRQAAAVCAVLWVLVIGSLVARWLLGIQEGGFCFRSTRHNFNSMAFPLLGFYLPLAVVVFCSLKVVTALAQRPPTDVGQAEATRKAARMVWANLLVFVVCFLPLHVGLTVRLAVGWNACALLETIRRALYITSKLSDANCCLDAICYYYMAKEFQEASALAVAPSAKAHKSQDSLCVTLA
Sequence of G-protein coupled receptor 55 (Q9Y2T6 whole entry): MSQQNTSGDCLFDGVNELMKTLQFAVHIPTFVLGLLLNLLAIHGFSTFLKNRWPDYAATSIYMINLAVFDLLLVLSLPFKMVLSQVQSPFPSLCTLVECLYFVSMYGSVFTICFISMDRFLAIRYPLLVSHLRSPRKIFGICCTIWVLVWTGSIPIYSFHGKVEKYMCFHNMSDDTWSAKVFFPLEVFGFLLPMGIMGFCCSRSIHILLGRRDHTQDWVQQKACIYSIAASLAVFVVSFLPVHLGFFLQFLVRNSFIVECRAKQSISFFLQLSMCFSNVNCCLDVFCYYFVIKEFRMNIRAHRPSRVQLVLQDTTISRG
Sequence of Neurotensin receptor type 1 (P30989 whole entry): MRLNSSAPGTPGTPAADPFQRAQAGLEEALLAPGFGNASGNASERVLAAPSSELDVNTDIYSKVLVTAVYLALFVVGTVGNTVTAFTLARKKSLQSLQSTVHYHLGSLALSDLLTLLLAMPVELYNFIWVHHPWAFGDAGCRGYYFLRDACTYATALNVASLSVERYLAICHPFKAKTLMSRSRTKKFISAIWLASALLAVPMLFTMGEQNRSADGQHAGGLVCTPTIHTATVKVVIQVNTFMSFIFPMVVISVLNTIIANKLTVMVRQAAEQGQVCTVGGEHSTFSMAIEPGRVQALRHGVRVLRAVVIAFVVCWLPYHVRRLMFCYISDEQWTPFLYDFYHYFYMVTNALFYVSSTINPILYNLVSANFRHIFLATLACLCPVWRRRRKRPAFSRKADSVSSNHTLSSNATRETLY
Sequence of Tumor necrosis factor (P01375 whole entry): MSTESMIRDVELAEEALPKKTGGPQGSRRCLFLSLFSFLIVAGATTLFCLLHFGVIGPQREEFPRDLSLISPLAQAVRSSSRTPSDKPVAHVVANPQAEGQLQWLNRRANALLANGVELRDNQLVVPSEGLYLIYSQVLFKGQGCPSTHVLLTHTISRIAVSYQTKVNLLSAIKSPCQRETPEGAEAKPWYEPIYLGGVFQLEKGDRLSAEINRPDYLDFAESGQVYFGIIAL
Sequence of Luciferin 4-monooxygenase (P08659 whole entry): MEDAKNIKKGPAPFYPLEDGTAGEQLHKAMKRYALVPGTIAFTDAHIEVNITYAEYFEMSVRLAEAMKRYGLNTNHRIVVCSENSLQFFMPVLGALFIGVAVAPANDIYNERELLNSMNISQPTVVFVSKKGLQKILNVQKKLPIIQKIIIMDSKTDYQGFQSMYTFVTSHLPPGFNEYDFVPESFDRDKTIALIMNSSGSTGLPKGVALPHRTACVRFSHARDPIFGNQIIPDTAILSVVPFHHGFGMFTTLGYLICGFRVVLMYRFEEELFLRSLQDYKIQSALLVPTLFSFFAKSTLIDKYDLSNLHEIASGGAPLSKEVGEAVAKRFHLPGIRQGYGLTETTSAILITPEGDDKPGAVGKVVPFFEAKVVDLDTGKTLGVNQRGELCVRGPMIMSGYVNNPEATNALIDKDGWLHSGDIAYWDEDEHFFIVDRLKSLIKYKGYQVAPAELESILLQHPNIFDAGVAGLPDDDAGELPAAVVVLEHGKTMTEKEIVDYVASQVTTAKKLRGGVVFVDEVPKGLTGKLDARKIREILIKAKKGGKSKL
Sequence of Paired box protein Pax-8 (Q06710 whole entry): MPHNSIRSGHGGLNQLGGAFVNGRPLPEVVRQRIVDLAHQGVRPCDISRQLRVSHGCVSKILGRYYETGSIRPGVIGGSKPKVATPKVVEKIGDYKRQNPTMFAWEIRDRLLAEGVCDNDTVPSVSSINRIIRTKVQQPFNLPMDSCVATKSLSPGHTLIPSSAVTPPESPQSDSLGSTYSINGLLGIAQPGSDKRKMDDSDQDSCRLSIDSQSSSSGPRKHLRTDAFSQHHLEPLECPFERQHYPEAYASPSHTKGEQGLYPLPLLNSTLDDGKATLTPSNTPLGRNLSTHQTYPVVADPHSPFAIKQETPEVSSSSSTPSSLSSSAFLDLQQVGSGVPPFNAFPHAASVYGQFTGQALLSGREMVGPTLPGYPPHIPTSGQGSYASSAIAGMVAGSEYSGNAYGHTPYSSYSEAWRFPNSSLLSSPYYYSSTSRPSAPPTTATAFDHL
Sequence of Phospholipase A2 (P04054 whole entry): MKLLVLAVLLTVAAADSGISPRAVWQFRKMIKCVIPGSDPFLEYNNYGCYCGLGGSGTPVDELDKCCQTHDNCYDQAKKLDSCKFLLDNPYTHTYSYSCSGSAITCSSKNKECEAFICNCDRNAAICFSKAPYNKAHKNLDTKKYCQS
Sequence of Cystic fibrosis transmembrane conductance regulator/Golgi-associated PDZ and coiled-coil motif-containing protein (P13569 whole entry, other chains not shown): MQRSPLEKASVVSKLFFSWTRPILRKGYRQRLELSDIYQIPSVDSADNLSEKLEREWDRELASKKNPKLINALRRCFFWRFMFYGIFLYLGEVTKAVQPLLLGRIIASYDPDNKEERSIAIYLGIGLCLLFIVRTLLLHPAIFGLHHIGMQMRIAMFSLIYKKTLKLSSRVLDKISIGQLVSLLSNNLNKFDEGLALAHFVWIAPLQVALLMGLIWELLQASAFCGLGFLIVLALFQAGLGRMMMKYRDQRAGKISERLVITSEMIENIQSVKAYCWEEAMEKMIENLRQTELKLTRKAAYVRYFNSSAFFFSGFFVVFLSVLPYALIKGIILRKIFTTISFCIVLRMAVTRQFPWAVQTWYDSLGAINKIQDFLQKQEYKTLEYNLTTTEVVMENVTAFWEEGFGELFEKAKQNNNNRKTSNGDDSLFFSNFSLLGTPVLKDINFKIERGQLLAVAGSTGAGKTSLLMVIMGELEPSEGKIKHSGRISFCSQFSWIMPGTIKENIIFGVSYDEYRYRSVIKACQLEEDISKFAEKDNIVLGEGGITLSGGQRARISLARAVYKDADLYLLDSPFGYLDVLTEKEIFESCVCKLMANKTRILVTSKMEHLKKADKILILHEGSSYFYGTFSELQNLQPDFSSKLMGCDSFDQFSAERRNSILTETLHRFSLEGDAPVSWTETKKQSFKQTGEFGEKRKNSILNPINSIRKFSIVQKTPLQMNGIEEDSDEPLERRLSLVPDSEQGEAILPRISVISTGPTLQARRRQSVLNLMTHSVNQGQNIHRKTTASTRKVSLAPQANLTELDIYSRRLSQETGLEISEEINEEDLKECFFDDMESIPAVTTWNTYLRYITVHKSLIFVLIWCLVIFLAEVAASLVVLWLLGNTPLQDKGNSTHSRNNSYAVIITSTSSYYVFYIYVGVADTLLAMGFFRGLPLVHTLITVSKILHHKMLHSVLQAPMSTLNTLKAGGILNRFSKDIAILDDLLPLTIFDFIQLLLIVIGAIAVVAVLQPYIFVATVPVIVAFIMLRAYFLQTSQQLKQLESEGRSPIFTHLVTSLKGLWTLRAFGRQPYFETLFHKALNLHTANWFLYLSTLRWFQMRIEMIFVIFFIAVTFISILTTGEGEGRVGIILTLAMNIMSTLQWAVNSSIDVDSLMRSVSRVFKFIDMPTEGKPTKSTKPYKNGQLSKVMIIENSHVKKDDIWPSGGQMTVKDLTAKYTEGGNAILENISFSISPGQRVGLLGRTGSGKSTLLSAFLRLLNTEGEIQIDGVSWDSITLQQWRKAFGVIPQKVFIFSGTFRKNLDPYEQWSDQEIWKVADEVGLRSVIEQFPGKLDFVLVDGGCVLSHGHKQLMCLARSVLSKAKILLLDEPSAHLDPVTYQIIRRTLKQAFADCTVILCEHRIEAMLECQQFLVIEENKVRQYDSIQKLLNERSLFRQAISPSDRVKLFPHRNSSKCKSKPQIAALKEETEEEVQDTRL

In the case of `O=C(c1cc(-c2ccco2)nc2ccccc12)N1CCC(N2CCOCC2)CC1`, the IC50 [1] is reported as > 56.8 µM (inactive).

With `Cc1ccc(CSc2nc(-c3ccccc3)c(C#N)c(=O)[nH]2)cc1` the IC50 [2] was 5.5 µM (active), the IC50 (Phospholipase A2) was 21.2 µM (inactive) and the EC50 [3] was 5.31 µM (active). For the same molecule, the IC50 [4] was 6.9 µM (active), the EC50 [5] was 13.2 µM (active) and the IC50 (Cysteine protease ATG4B) was 7.62 µM (active). For the same molecule, the IC50 (Tumor necrosis factor) was 8.2 µM (active).

In the case of `c1ccc(C(c2ccccc2)c2cccnc2)cc1`, the AC50 [6] is reported as 45.6 µM (active).

For `Cc1ccc(-c2csc3ncnc(Sc4nnc(CN5CCCCCC5=O)o4)c23)cc1`, the EC50 [7] was 1.78 µM (active), the EC50 [8] was 8.73 µM (active) and the EC50 [9] was 2.1 µM (active). For the same molecule, the AC50 (Paired box protein Pax-8) was 5 µM (active), the EC50 [10] was 74 µM (active) and the EC50 (HT-1080) was 20.1 µM (active).

With `Cc1ccc(Cn2ncc3c(N4CCN(c5ccccc5C)CC4)ncnc32)cc1` the IC50 [11] was 0.761 µM (active), the EC50 [12] was > 60 µM (not active) and the EC50 [13] was 1.6 µM (active). For the same molecule, the IC50 [14] was > 32 µM (inactive) and the IC50 [15] was 17.7 µM (not active).

Source: ChEMBL document CHEMBL1201862, “PubChem BioAssay data set” (2004)
